# Results taken from patent publication US6881741B2 (ViroChem Pharma Inc., priority 2001, dated 2005).
# pIC50: −log10 of the molar value. Where two headings read alike, the source gives them in different places.
# Biological target: recombinant HCV NS5B (HCV RNA-dependent RNA polymerase) (Hepatitis C virus genotype 1b, UniProt P26663)
# Experiment: biochemical
# [1] = related polymerase activity (Example 27 list), read-out: IC50
# [2] = HCV polymerase activity, list of compounds of Example 27, read-out: IC50 (polymerase activity)
# Sequence of recombinant HCV NS5B (HCV RNA-dependent RNA polymerase) (P26663 2420-3010 limits assumed): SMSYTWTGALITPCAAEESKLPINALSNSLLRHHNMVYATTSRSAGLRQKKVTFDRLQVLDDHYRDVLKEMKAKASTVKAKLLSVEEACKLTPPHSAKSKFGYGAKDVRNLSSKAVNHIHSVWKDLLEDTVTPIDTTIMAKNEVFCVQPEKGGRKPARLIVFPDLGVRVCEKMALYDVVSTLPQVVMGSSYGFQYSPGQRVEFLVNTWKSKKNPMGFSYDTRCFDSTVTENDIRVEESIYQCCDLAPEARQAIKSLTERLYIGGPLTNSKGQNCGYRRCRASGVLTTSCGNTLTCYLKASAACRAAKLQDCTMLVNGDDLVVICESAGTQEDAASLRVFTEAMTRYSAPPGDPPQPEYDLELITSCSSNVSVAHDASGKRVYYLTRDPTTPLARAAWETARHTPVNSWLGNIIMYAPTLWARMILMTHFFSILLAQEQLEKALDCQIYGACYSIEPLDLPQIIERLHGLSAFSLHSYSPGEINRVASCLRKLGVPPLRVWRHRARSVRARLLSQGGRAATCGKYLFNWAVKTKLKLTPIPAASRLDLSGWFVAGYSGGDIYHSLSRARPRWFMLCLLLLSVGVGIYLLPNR
Structure (SMILES),pIC50 [1],pIC50 [2]
"CC1CCC(C(=O)N(c2cc(-c3cccc([N+](=O)[O-])c3)sc2C(=O)O)C(C)C)CC1 (stereo not drawn) [Compound 383, 3-[ISOPROPYL-(4-METHYL- CYCLOHEXANECARBONYL)-AMINO]-5-(3- NITRO-PHENYL)-THIOPHENE-2- CARBOXYLIC ACID]",> 5.30,
"C=CCN(C(=O)Cc1ccc(Cl)cc1Cl)c1cc(-c2ccccc2)sc1C(=O)O [Compound 348, 3-{ALLYL-[2-(2,4-DICHLORO-PHENYL)- ACETYL]-AMINO}-5-PHENYL-THIOPHENE- 2-CARBOXYLIC ACID]",4.70 to 5.30,
"O=C(O)c1sc(-c2ccccc2)cc1N(C(=O)c1ccc(Cl)cc1Cl)C1CCCC[C@@H]1O (stereo in doubt) [Compound 538, 3-[(2,4-DICHLORO-BENZOYL)-(2- HYDROXY-CYCLOHEXYL)-AMINO]-5- PHENYL-THIOPHENE-2-CARBOXYLIC ACID]",,> 5.30
"O=C(O)c1sc(-c2ccccc2)cc1NS(=O)(=O)c1ccc([N+](=O)[O-])cc1 [Compound 148, 3-(4-NITRO-BENZENESULFONYLAMINO)-5-PHENYL-THIOPHENE-2-CARBOXYLIC ACID]",4.70 to 5.30,
"Cc1ccc(C)c(S(=O)(=O)Nc2cc(-c3ccc(F)cc3)sc2C(=O)O)c1 [Compound 107, 3-(2,5-DIMETHYL-BENZENESULFONYLAMINO)-5-(4-FLUORO-PHENYL)-THIOPHENE-2-CARBOXYLIC ACID]",> 5.30,
"CN(C(=O)c1ccc2ccccc2c1)c1cc(-c2ccccc2)sc1C(=O)O [Compound 252, 3-[METHYL-(NAPHTHALENE-2-CARBONYL)-AMINO]-5-PHENYL-THIOPHENE-2-CARBOXYLIC ACID]",4.70 to 5.30,
"COc1ccc(-c2cc(N(C)C(=O)c3ccc(C)cc3)c(C(=O)O)s2)cc1 [Compound 198, 5-(4-METHOXY-PHENYL)-3-[METHYL-(4-METHYL-BENZOYL)-AMINO]-THIOPHENE-2-CARBOXYLIC ACID]",4.70 to 5.30,
"Cc1ccc(C(=O)N(Cc2ccccc2)c2cc(-c3ccccc3)sc2C(=O)O)cc1 [Compound 340, 3-[BENZYL-(4-METHYL-BENZOYL)- AMINO]-5-PHENYL-THIOPHENE-2- CARBOXYLIC ACID]",> 5.30,
"Cc1ccc(C(=O)N(Cc2ccccc2C)c2cc(-c3ccccc3)sc2C(=O)O)cc1 [Compound 343, 3-[(4-METHYL-BENZOYL)-(2-METHYL- BENZYL)-AMINO]-5-PHENYL-THIOPHENE- 2-CARBOXYLIC ACID]",> 5.30,
"CC(CNC(=O)OC(C)(C)C)N(C(=O)c1ccc(Cl)cc1Cl)c1cc(-c2ccccc2)sc1C(=O)O (stereo not drawn) [Compound 545, 3-[(2-TERT-BUTOXYCARBONYLAMINO-1- METHYL-ETHYL)-(2,4-DICHLORO- BENZOYL)-AMINO]-5-PHENYL- THIOPHENE-2-CARBOXYLIC ACID]",,> 5.30
"Cc1ccccc1S(=O)(=O)Nc1cc(Cc2cccc(C#N)c2)sc1C(=O)O [Compound 150, 5-(3-CYANO-BENZYL)-3-(TOLUENE-2-SULFONYLAMINO)-THIOPHENE-2-CARBOXYLIC ACID]",< 4.70,
"CC(=O)c1ccc(-c2cc(NS(=O)(=O)c3ccccc3C)c(C(=O)O)s2)s1 [Compound 229, 5′-ACETYL-4-(TOLUENE-2-SULFONYLAMINO)-[2,2′]BITHIOPHENYL-5-CARBOXYLIC ACID]",> 5.30,
"CCCCc1ccc(C(=O)N(C)c2cc(-c3ccccc3)sc2C(=O)O)cc1 [Compound 188, 3-[(4-BUTYL-BENZOYL)-METHYL-AMINO]-5-PHENYL-THIOPHENE-2-CARBOXYLIC ACID]",< 4.70,
"Cc1ccc(C(=O)N(C)c2cc(-c3cccc(C#N)c3)sc2C(=O)O)cc1 [Compound 206, 5-(3-CYANO-PHENYL)-3-[METHYL-(4-METHYL-BENZOYL)-AMINO]-THIOPHENE-2-CARBOXYLIC ACID]",> 5.30,
"Cc1ccc(C(=O)N(C)c2cc(-c3ccc(OC(F)(F)F)cc3)sc2C(=O)O)cc1 [Compound 216, 3-[METHYL-(4-METHYL-BENZOYL)-AMINO]-5-(4-TRIFLUOROMETHOXY-PHENYL)-THIOPHENE-2-CARBOXYLIC ACID]",4.70 to 5.30,
